Where two headings read alike, the source gives them in different places.

The test system of one data set is spring barley (HORVS). The experiment in a line: Postemergence greenhouse trial, % visual injury on spring barley. Format: in vivo, Hordeum vulgare. Conditions: HORVS. The method in brief: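 Greenhouse crops at second to third true leaf stage sprayed postemergence at 187 L/ha with herbicide (g ae/ha) plus safener (g ai/ha) in acetone/DMSO diluted into 1.5% v/v Agri-dex. Injury scored visually versus solvent-blank controls after 20-22 d, 0 (none) to 100% (complete kill); expected mixture effects by Colby's equation.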

The next data set has as its system lambsquarters (CHEAL). The experiment in a line: Postemergence greenhouse trial, % visual injury on lambsquarters. Format: in vivo, Chenopodium album. The following applies: Chenopodium album, post-emergence, CHEAL, read-out: % visual injury, Ob. The procedure, abridged: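 Visual injury, 0 (none) to 100 (complete kill), rated 20-22 d after overhead track-sprayer application at 187 L/ha; Colby's equation gave expected mixture responses. Herbicide (g ae/ha) and cloquintocet-mexyl safener (g ai/ha) diluted in aqueous 1.5% v/v Agri-dex, applied to weeds at 2–3 true leaves.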

A further data set deals with thistle (CIRAR). The experiment in a line: Postemergence greenhouse trial, % visual injury on thistle. Format: in vivo, Cirsium arvense. Conditions: Cirsium arvense, post-emergence, CIRAR, read-out: % visual injury, Ob. The protocol: Seeds of the desired test plant species were planted in Sun Gro MetroMix® 306 planting mixture, which typically has a pH of 6.0 to 6.8 and an organic matter content of about 30 percent, in plastic pots with a surface area of 103.2 square centimeters (cm^2). When required to ensure good germination and healthy plants, a fungicide treatment and/or other chemical or physical treatment was applied. The plants were grown for 7-36 days (d) in a greenhouse with an approximate 14-hour (h) photoperiod which was maintained at about 23° C. during the day and 22° C. during the night. Nutrients and water were added on a regular basis and supplemental lighting was provided with overhead metal halide 1000-Watt lamps as necessary. The plants were employed for testing when they reached the second or third true leaf stage.
Weighed amounts of technical material were dissolved in a volume of 97:3 volume per volume (v/v) acetone/dimethyl sulfoxide (DMSO) to stock solutions. […] The concentrated stock solutions were diluted with an aqueous mixture of 1.5% v/v of Agri-dex crop oil concentrate to provide the appropriate application rates. Compound requirements are based upon a 12 milliliter (mL) application volume at a rate of 187 liters per hectare (L/ha). Stocks solutions of the safeners were prepared following the same procedure. Spray solutions of the safeners and experimental compound mixtures were prepared by adding the stock solutions to the appropriate amount of dilution solution to form a 12 mL spray solution in two-way combinations. Formulated compounds were applied to the plant material with an overhead Mandel track sprayer equipped with 8002E nozzles calibrated to deliver 187 L/ha over an application area of 0.503 square meters (m^2) at a spray height of 18 inches (43 centimeters (cm)) above average plant canopy. Control plants were sprayed in the same manner with the solvent blank. All herbicide application (component a) rates are in g ae/ha and all safener (component b) rates are in g ai/ha.
The treated plants and control plants were placed in a greenhouse as described above and watered by sub-irrigation to prevent wash-off of the test compounds. After 20-22 d, the condition of the test plants as compared with that of the control plants was determined visually and scored on a scale of 0 to 100 percent where 0 corresponds to no injury and 100 corresponds to complete kill. The condition of the test plants was compared with that of the control plants as determined visually and scored on a scale of 0 to 100 percent, where 0 corresponds to no injury and 100 corresponds to complete kill. Colby's equation was used to determine the herbicidal effects expected from the mixtures.
The safener cloquintocet-mexyl was combined with compound 1, compound 2, compound 4, compound 5, and compound 6, and applied to corn/maize (ZEAMX) and spring wheat (TRZAS) and the phytotoxicity of the herbicidal compositions was measured. In addition, the efficacy of the herbicidal composition on velvetleaf (ABUTH, Abutilon theophrasti), pigweed (AMARE, Amaranthus retroflexus), winter rape (BRSNW, Brassica napus), lambsquarters (CHEAL, Chenopodium album), thistle (CIRAR, Cirsium arvense), nutsedge (CYPES, Cyperus esculentus), poinsettia (EPHHL, Euphorbia heterophylla), wild buckwheat (POLCO, Polygonum convolvulus), giant foxtail (SETFA, Setaria faberi), and chickweed (STEME, Stellaria media) was evaluated. […]

For another data set, the system named is common poppy (PAPRH). As to the kind of experiment: Postemergence greenhouse trial, % visual injury on common poppy. Type of data set: in vivo, Papaver rhoeas. Conditions: Papaver rhoeas, post-emergence, PAPRH, read-out: % visual injury, Ob. The method in brief: (§1)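 Herbicide rates g ae/ha, safener (cloquintocet-mexyl) rates g ai/ha; spray carrier 1.5% v/v crop oil concentrate, 187 L/ha, 2nd–3rd leaf stage. Rating: visual % injury at 20-22 d.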

A further data set concerns wild mustard (SINAR). The experiment in a line: Postemergence greenhouse trial, % visual injury on wild mustard. Format: in vivo, Sinapis arvensis. The following applies: Brassica, post-emergence, SINAR, read-out: % visual injury, Ob. The method in brief:
as §1

`CCCCOC(=O)c1nc(-c2ccc3cc[nH]c3c2F)c(F)c(N)c1Cl` [compound 9]: the “% visual injury, Ob” value in the data set on spring barley (HORVS) (compound 4.380 g/ha, CQC-m 0) worked out at 10%; with spring barley (HORVS) (compound 8.75 g/ha, CQC-m 0), 20%; with spring barley (HORVS) (compound 17.5 g/ha, CQC-m 0), 30%; in the data set with spring barley (HORVS) (compound 35 g/ha, CQC-m 0), 40%; in the data set on spring barley (HORVS) (compound 70 g/ha, CQC-m 0) it was 50%. Further, the pest or weed control at 4.38 g/ha with lambsquarters (CHEAL) (compound 4.380 g/ha, CQC-m 0) turned out to be 85%; with thistle (CIRAR) (compound 4.380 g/ha, CQC-m 0), 10%; in the data set with common poppy (PAPRH) (compound 4.380 g/ha, CQC-m 0), 90%; with wild mustard (SINAR) (compound 4.380 g/ha, CQC-m 0), 93%. Moreover, the pest or weed control at 8.75 g/ha in the data set on lambsquarters (CHEAL) (compound 8.75 g/ha, CQC-m 0) came to 80%; in the data set with thistle (CIRAR) (compound 8.75 g/ha, CQC-m 0) it was 30%; in the data set on common poppy (PAPRH) (compound 8.75 g/ha, CQC-m 0), 87%; with wild mustard (SINAR) (compound 8.75 g/ha, CQC-m 0), 95%. The pest or weed control at 17.5 g/ha in the data set with lambsquarters (CHEAL) (compound 17.5 g/ha, CQC-m 0) is 95%; in the data set on thistle (CIRAR) (compound 17.5 g/ha, CQC-m 0), 70%; with common poppy (PAPRH) (compound 17.5 g/ha, CQC-m 0), 100%; in the data set with wild mustard (SINAR) (compound 17.5 g/ha, CQC-m 0), 95%. In addition, the pest or weed control at 35 g/ha in the data set with lambsquarters (CHEAL) (compound 35 g/ha, CQC-m 0) is 100%; in the data set with thistle (CIRAR) (compound 35 g/ha, CQC-m 0), 95%; with common poppy (PAPRH) (compound 35 g/ha, CQC-m 0) it was 93%; in the data set with wild mustard (SINAR) (compound 35 g/ha, CQC-m 0), 100%. Moreover, the pest or weed control at 70 g/ha in the data set on lambsquarters (CHEAL) (compound 70 g/ha, CQC-m 0) was found to be 100%; in the data set on thistle (CIRAR) (compound 70 g/ha, CQC-m 0), 97%; in the data set on common poppy (PAPRH) (compound 70 g/ha, CQC-m 0), 100%; with wild mustard (SINAR) (compound 70 g/ha, CQC-m 0), 100%.
With `Nc1c(F)c(-c2ccc3scnc3c2)nc(C(=O)O)c1Cl` [compound 17], the “% visual injury, Ob” value came to 0% in the data set on spring barley (HORVS) (4.375 g/ha, applied alone); 15% with spring barley (HORVS) (8.75 g/ha, applied alone); 30% in the data set on spring barley (HORVS) (17.5 g/ha, applied alone); 40% with spring barley (HORVS) (35 g/ha, applied alone); 45% with spring barley (HORVS) (70 g/ha, applied alone). In addition, the pest or weed control at 4.375 g/ha is 40% in the data set on lambsquarters (CHEAL) (4.375 g/ha, applied alone); 0% in the data set on thistle (CIRAR) (applied alone); 80% in the data set on common poppy (PAPRH) (applied alone); 93% in the data set with wild mustard (SINAR) (applied alone). The pest or weed control at 8.75 g/ha in the data set on lambsquarters (CHEAL) (8.75 g/ha, applied alone) worked out at 60%; in the data set on thistle (CIRAR) (8.75 g/ha, applied alone) it was 0%; in the data set on common poppy (PAPRH) (8.75 g/ha, applied alone), 85%; in the data set with wild mustard (SINAR) (8.75 g/ha, applied alone), 93%. Further, the pest or weed control at 17.5 g/ha in the data set on lambsquarters (CHEAL) (17.5 g/ha, applied alone) was found to be 70%; in the data set with thistle (CIRAR) (17.5 g/ha, applied alone), 10%; with common poppy (PAPRH) (17.5 g/ha, applied alone), 85%; in the data set on wild mustard (SINAR) (17.5 g/ha, applied alone), 95%. The pest or weed control at 35 g/ha in the data set on lambsquarters (CHEAL) (35 g/ha, applied alone) came out at 80%; in the data set with thistle (CIRAR) (35 g/ha, applied alone) it was 20%; in the data set on common poppy (PAPRH) (35 g/ha, applied alone), 95%; in the data set with wild mustard (SINAR) (35 g/ha, applied alone), 95%. For the same molecule, the pest or weed control at 70 g/ha with lambsquarters (CHEAL) (70 g/ha, applied alone) stood at 85%; with thistle (CIRAR) (70 g/ha, applied alone), 20%; in the data set with common poppy (PAPRH) (70 g/ha, applied alone) it was 100%; in the data set with wild mustard (SINAR) (70 g/ha, applied alone), 100%.
Turning to `Nc1c(F)c(-c2ccc3ccoc3c2)nc(C(=O)O)c1Cl` [compound 20], the “% visual injury, Ob” value was determined as 0% with spring barley (HORVS) (4.375 g/ha, applied alone); 10% in the data set with spring barley (HORVS) (8.75 g/ha, applied alone); 20% with spring barley (HORVS) (17.5 g/ha, applied alone); 30% in the data set on spring barley (HORVS) (35 g/ha, applied alone); 40% with spring barley (HORVS) (70 g/ha, applied alone). The pest or weed control at 4.375 g/ha in the data set with thistle (CIRAR) (applied alone) was 0%; in the data set on common poppy (PAPRH) (applied alone), 85%; in the data set on wild mustard (SINAR) (applied alone) it was 60%. Besides, the pest or weed control at 8.75 g/ha in the data set on thistle (CIRAR) (8.75 g/ha, applied alone) was 10%; in the data set with common poppy (PAPRH) (8.75 g/ha, applied alone), 85%; in the data set on wild mustard (SINAR) (8.75 g/ha, applied alone), 60%. Moreover, the pest or weed control at 17.5 g/ha in the data set on thistle (CIRAR) (17.5 g/ha, applied alone) is 20%; in the data set with common poppy (PAPRH) (17.5 g/ha, applied alone), 95%; with wild mustard (SINAR) (17.5 g/ha, applied alone), 83%. For the same molecule, the pest or weed control at 35 g/ha in the data set with thistle (CIRAR) (35 g/ha, applied alone) was 40%; in the data set with common poppy (PAPRH) (35 g/ha, applied alone), 100%; in the data set on wild mustard (SINAR) (35 g/ha, applied alone) it was 80%. Besides, the pest or weed control at 70 g/ha came to 70% with thistle (CIRAR) (70 g/ha, applied alone); 95% with common poppy (PAPRH) (70 g/ha, applied alone); 93% in the data set with wild mustard (SINAR) (70 g/ha, applied alone).

The values are drawn from US9763445B2, “Safened herbicidal compositions comprising a pyridine carboxylic acid herbicide” (Dow AgroSciences, LLC, priority 2014, dated 2017).
